Consider two molecules from publication PMC13534789, “Molecular Glue Degraders Enhance CAPRIN1‐Dependent Lysosomal Degradation of APP and Reduce Amyloid β in Alzheimer's Disease” (Advanced Science, 2026).

In series [1] the target is CAPRIN1–APP interaction (Homo sapiens, UniProt P05067+Q14444). The series is described as follows: In vitro binding assay, recombinant CAPRIN1 and APP (reciprocal co-IP). Also on record: recombinant human CAPRIN1 (full length, 100 ng) was added; purchased Biolegend. The note with it: concentration-dependent. How it is done:
When CAPRIN1 was used as a bait, recombinant CAPRIN1 (200 ng) was mixed with anti‐CAPRIN1 antibodies (1 µg) in IP buffer (25 mM Tris, 150 mM NaCl, 5% Glycerol, and 1% Triton X‐100 at pH 7.4) overnight at 4°C, followed by the addition of Protein‐G agarose beads for 4 h at 4°C. CAPRIN1 conjugated beads were then washed with binding buffer (20 mM HEPES, 100 mM NaCl, 0.01% Triron X‐100, and 5% Glycerol at pH 7.25) before the addition of recombinant human APP (prey) for 1 h at 4°C. Beads were washed and eluted with Laemmli buffer with boiling, followed by Western blotting. When APP was used as a bait, biotin‐conjugated APP antibody (1 µg; 4G8, Biolegend) was pre‐mixed with recombinant APP (100 ng, Biolegend) in pulldown buffer (0.1% NP‐40, 50 mM Tris, 150 mM NaCl, 0.2 mM EDTA, 100 mM KCl, 1 mM MgCl2, 0.2 mM CaCl2, and 10% glycerol) overnight at 4°C, followed by addition of 0.5 mg of Streptavidin magnetic beads (Pierce) for 1 h at 4°C. After washing the beads, recombinant human CAPRIN1 (full length, 100 ng) was added together with dose‐dependent 0043 in the binding buffer for 1 h at 4°C. Beads were washed and eluted with Laemmli buffer with boiling, followed by Western blotting.

Series [2] relates to iPSC‐Ns. The series is described as follows: Cell viability / cytotoxicity of iPSC-derived neurons. In kind it is cell-based, human. The note with it: AG27606-Ns, 10 µM, 72 h. How it is done: Cytotoxicity test was conducted using Neutral Red Uptake assay. In brief, iPSC‐Ns seeded in 96 well plates (1 × 10^5 cells/well) were treated dose‐dependently for 5 days. Cells were washed with PBS containing CaCl2 and MgCl2 followed by the addition of Neutral red solution (40 µg/mL in PBS, Sigma–Aldrich) and incubation at 37°C for 3 h. Cells were then washed with PBS containing CaCl2 and MgCl2 two times and de‐stained using with Neutral red de‐staining solution on a plate shaker for 30 min, followed by reading at 540 nm with a Microplate reader. Cell viability was determined using the CellTiter‐Glo Luminescent Cell Viability Assay (Promega) following the manufacturer's instructions. […]

A short description of series [3]: Brain/plasma ratio in mice. The note with it: male, C57BL/6, brain, 10 mg/kg; mouse, PO, 10 mpk; read-out: B/P-Kp (brain-to-plasma partition coefficient). It counts as in vivo, male C57BL/6 mice. The procedure:
Brain/Plasma Ratio test was processed by Sai Life Sciences Pvt. Ltd. Briefly, twelve male C57BL/6 mice were administered orally with solution formulation of 0152 at 10 mg/kg dose. Blood samples (approximately 60 µL) were collected under light isoflurane anesthesia from a set of three mice at 0.25, 0.5, 1, and 2 h. The blood samples were collected at each time point in labelled micro centrifuge tube containing K2EDTA as anticoagulant. Plasma was harvested by centrifugation of blood and stored at ‐70±10°C until analysis. Immediately after collecting blood, animals were anesthetized, perfused using 10 mL phosphate buffer saline, and brain samples were collected from each mouse at respective time points. Brain samples were homogenized using ice‐cold phosphate buffer saline (pH 7.4), and homogenates were stored below ‐70±10°C until analysis. Total homogenate volume was three times the brain weight. The plasma and brain concentration‐time data of 0152 were used for calculation. Plasma and brain samples were quantified by fit‐for‐purpose LC‐MS/MS method.

Series [4] concerns the target T1, CAPRIN1 and APP (Homo sapiens, UniProt P05067+Q14444).
T1 construct: endogenous in cells; host or cells: AG27606-Ns, sAD2.3-Ns (iPSC-derived neurons) and their lysates
As to the kind of experiment: Streptavidin pull-down with biotinylated 0152 in AG27606-N lysates. In kind it is binding.

Chain of CAPRIN1–APP interaction (Q14444 whole entry): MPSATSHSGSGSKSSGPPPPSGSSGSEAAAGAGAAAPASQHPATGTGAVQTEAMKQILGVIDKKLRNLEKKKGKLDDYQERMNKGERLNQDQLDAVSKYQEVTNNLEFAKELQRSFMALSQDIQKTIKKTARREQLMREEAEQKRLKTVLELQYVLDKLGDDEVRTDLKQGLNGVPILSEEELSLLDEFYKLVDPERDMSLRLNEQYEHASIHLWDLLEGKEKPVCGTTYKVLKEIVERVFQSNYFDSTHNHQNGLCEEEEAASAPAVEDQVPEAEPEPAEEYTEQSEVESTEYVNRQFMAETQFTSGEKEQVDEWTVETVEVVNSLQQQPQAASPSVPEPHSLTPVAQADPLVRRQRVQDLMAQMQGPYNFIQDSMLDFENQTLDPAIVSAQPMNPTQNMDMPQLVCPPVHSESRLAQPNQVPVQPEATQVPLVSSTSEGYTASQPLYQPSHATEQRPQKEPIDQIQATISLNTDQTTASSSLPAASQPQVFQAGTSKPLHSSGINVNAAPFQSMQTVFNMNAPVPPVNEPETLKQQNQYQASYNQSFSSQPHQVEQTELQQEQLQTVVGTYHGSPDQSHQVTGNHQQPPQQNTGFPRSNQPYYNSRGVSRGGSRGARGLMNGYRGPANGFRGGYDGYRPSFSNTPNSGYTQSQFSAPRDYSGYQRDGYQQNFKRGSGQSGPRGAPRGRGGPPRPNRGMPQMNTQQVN
Chain of CAPRIN1–APP interaction (P05067 18-770): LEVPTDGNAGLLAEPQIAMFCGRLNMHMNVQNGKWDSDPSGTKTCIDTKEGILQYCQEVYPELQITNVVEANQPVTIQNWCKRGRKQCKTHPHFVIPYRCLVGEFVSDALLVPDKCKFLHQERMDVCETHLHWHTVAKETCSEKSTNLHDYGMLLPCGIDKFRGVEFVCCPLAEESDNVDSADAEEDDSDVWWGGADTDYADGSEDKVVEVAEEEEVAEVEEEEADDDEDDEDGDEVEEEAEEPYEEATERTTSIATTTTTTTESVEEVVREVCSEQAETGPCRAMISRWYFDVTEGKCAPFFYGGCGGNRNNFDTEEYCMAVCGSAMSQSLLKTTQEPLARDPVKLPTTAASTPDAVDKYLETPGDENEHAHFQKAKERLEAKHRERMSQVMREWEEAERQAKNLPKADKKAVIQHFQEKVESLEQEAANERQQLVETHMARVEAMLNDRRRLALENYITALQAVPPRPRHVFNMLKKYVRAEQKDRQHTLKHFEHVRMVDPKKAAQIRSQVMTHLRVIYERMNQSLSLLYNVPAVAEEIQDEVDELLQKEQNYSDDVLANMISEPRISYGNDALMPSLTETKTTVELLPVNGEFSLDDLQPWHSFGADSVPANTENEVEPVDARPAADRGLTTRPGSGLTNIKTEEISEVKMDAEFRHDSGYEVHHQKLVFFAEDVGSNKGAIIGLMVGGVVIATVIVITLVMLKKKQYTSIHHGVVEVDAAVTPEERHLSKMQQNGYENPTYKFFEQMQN

On to `N#Cc1cccc(NC(=O)Nc2nc3ccc(C(=O)N4CCOCC4)cc3s2)c1` [compound 0043], for which the “Interaction of recombinant CAPRIN1 and APP (reciprocal co-IP)” value in series [1] was “enhanced the interaction between CAPRIN1 and APP”.
On to `COc1cccc(NC(=O)Nc2nc3ccc(C(=O)N4CCOCC4)cc3s2)c1` [compound 0152], for which the “Neuronal toxicity (CellTiter-Glo)” value in series [2] is “without neuronal toxicity”. Further, the Kp in series [3] was found to be 0.03. In series [4], the “Competition of the 0152-biotin pull-down by excess free compound” value was “competitively inhibited”.
